Assay results taken from US20110118262A1, “Pyrrolidinyl and Piperidinyl Compounds Useful as NHE-1 Inhibitiors” (BOEHRINGER INGELHEIM INTERNATIONAL GMBH, priority 2008, published 2011).

Each molecule was assayed against T1, NHE-1 (Homo sapiens, UniProt P19634) (assay: Evaluation of NHE-1 Inhibition (pHi) in HT-29 cells). Conditions: BCECF dye, 50% inhibition of the intracellular pH recovery, read-out: NHE1 HT29 pHi IC50.
T1 construct: endogenous in cells; host or cells: HT-29
Assay type: cell-based
Experimental: Evaluation of NHE-1 Inhibition (pHi)
HT-29 cells resuspended in DMEM supplemented with 10% FBS, 1% NEAA, and 1% Penn-Strep are seeded at 10,000 cells/well in collagen coated 384 well plates which are then incubated for 24 hours at 37° C. The next day, the medium is removed and the cells are dye (Invitrogen's BCECF) loaded for 30 minutes at 37° C., washed three times with an acid loading buffer (10 mM NH4Cl, 1.8 mM CaCl2, 90 mM Choline Cl, 5 mM Glucose, 15 mM Hepes, 5 mM KCl, 1 mM MgCl2, adjusted to pH 7.5 with KOH) and further incubated at RT for 30 minutes.
At the end of the incubation, the buffer is removed and 5 uL of fresh acid loading buffer is added to each well to prevent the dessication of the cells. The plate is placed in a Hamamatsu FDSS6000 instrument and candidate compounds are added to the cells.

T1 sequence (P19634 whole entry): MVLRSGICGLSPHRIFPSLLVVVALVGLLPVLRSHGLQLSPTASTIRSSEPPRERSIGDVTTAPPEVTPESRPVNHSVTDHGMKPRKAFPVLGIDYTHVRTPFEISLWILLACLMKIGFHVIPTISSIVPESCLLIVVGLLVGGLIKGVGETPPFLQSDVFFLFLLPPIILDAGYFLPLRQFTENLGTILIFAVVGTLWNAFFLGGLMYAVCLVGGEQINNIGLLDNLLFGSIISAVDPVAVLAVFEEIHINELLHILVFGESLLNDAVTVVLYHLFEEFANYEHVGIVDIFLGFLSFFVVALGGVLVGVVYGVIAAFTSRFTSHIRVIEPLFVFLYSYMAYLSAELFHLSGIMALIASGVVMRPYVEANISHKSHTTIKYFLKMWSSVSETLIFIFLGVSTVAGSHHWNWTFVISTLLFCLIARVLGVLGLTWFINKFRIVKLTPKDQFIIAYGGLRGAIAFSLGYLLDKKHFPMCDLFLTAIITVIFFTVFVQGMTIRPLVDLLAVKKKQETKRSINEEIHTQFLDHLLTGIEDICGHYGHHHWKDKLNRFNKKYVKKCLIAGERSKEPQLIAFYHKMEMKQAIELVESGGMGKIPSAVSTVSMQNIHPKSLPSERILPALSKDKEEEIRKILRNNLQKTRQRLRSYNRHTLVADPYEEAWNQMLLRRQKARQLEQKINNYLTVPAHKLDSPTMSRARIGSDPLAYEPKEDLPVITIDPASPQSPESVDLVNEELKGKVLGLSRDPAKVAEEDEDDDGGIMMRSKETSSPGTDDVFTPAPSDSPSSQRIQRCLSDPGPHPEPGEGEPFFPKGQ

Point of comparison: `CC(C)(C)C(N)C(=O)N1CCC(c2ccc(C(=O)NC(=N)N)cc2C(F)(F)F)CC1` (centres unmarked) [N-{4-[1-(2-Amino-3,3-dimethyl-butyryl)-piperidin-4-yl]-3-trifluoromethyl-benzoyl}-guanidine], IC50 16 nM. Against it:
- CN1CCC(C(=O)N2CCC(c3ccc(C(=O)NC(=N)N)cc3C(F)(F)F)CC2)CC1 [N-{4-[1-(1-Methyl-piperidine-4-carbonyl)-piperidin-4-yl]-3-trifluoromethyl-benzoyl}-guanidine] — 53-fold lower, 0.3 nM
- N=C(N)NC(=O)c1ccc(C2CCN(C(=O)C3CCN(c4ncccn4)CC3)CC2)c(C(F)(F)F)c1 [N-{4-[1-(1-Pyrimidin-2-yl-piperidine-4-carbonyl)-piperidin-4-yl]-3-trifluoromethyl-benzoyl}-guanidine] — 4.4-fold higher, 70 nM
- Cc1cc(C2CCN(C(=O)c3ncc[nH]3)CC2)c(C(F)(F)F)cc1C(=O)NC(=N)N [N-{4-[1-(1H-Imidazole-2-carbonyl)-piperidin-4-yl]-2-methyl-5-trifluoromethyl-benzoyl}-guanidine] — 4-fold lower, 4 nM
- Cc1cc(C2CCN(C(=O)c3cc4ccccc4[nH]3)CC2)c(C(F)(F)F)cc1C(=O)NC(=N)N [N-{4-[1-(1H-Indole-2-carbonyl)-piperidin-4-yl]-2-methyl-5-trifluoromethyl-benzoyl}-guanidine] — 18-fold higher, 290 nM
- Cc1cc(C2CCN(C(=O)c3ccc4[nH]ccc4c3)CC2)c(C(F)(F)F)cc1C(=O)NC(=N)N [N-{4-[1-(1H-Indole-5-carbonyl)-piperidin-4-yl]-2-methyl-5-trifluoromethyl-benzoyl}-guanidine] — 2.9-fold higher, 47 nM
- N=C(N)NC(=O)c1ccc(C2CCN(C(=O)c3ccc[nH]3)CC2)c(C(F)(F)F)c1 [N-{4-[1-(1H-Pyrrole-2-carbonyl)-piperidin-4-yl]-3-trifluoromethyl-benzoyl}-guanidine] — 2.9-fold higher, 46 nM
- N=C(N)NC(=O)c1ccc(C2CCN(C(=O)c3ccc[nH]3)CC2)cc1 [N-{4-[1-(1H-Pyrrole-2-carbonyl)-piperidin-4-yl]-benzoyl}-guanidine] — 24-fold higher, 385 nM
- N=C(N)NC(=O)c1ccc(C2CCN(C(=O)c3ccc[nH]3)C2)c(C(F)(F)F)c1 (centres unmarked) [N-{4-[1-(1H-Pyrrole-2-carbonyl)-pyrrolidin-3-yl]-3-trifluoromethyl-benzoyl}-guanidine] — within 1.5-fold, 19 nM
- CC(C)(C)C(=O)N1CCC(c2ccc(C(=O)NC(=N)N)cc2C(F)(F)F)CC1 [N-{4-[1-(2,2-Dimethyl-propionyl)-piperidin-4-yl]-3-trifluoromethyl-benzoyl}-guanidine] — 4.2-fold higher, 68 nM
- N=C(N)NC(=O)c1ccc(C2CCN(C(=O)c3ccc4c(c3)OCCO4)CC2)c(C(F)(F)F)c1 [N-{4-[1-(2,3-Dihydro-benzo[1,4]dioxine-6-carbonyl)-piperidin-4-yl]-3-trifluoromethyl-benzoyl}-guanidine] — 8.1-fold higher, 130 nM
- N=C(N)NC(=O)c1ccc(C2CCN(C(=O)c3ccc4c(c3)CCO4)CC2)c(C(F)(F)F)c1 [N-{4-[1-(2,3-Dihydro-benzofuran-5-carbonyl)-piperidin-4-yl]-3-trifluoromethyl-benzoyl}-guanidine] — within 1.5-fold, 23 nM
- COc1cccc(C(=O)N2CCC(c3ccc(C(=O)NC(=N)N)cc3C(F)(F)F)CC2)c1OC [N-{4-[1-(2,3-Dimethoxy-benzoyl)-piperidin-4-yl]-3-trifluoromethyl-benzoyl}-guanidine] — 2.9-fold higher, 46 nM
- Cc1cc(C2CCN(C(=O)C(C)(C)N)CC2)c(C(F)(F)F)cc1C(=O)NC(=N)N [N-{4-[1-(2-Amino-2-methyl-propionyl)-piperidin-4-yl]-2-methyl-5-trifluoromethyl-benzoyl}-guanidine] — 1.6-fold lower, 10 nM
- CC(C)(N)C(=O)N1CCC(c2ccc(C(=O)NC(=N)N)cc2C(F)(F)F)CC1 [N-{4-[1-(2-Amino-2-methyl-propionyl)-piperidin-4-yl]-3-trifluoromethyl-benzoyl}-guanidine] — 2-fold lower, 8 nM
- N=C(N)NC(=O)c1ccc(C2CCN(C(=O)C(N)CC3CC3)CC2)c(C(F)(F)F)c1 (centres unmarked) [N-{4-[1-(2-Amino-3-cyclopropyl-propionyl)-piperidin-4-yl]-3-trifluoromethyl-benzoyl}-guanidine] — within 1.5-fold, 19 nM
- N=C(N)NC(=O)c1ccc(C2CCN(C(=O)C(N)CO)CC2)c(C(F)(F)F)c1 (centres unmarked) [N-{4-[1-(2-Amino-3-hydroxy-propionyl)-piperidin-4-yl]-3-trifluoromethyl-benzoyl}-guanidine] — 3.2-fold lower, 5 nM
- CC(C)C(N)C(=O)N1CCC(c2ccc(C(=O)NC(=N)N)cc2C(F)(F)F)CC1 (centres unmarked) [N-{4-[1-(2-Amino-3-methyl-butyryl)-piperidin-4-yl]-3-trifluoromethyl-benzoyl}-guanidine] — within 1.5-fold, 12 nM
- N=C(N)NC(=O)c1ccc(C2CCN(C(=O)C(N)Cc3ccccc3)CC2)c(C(F)(F)F)c1 (centres unmarked) [N-{4-[1-(2-Amino-3-phenyl-propionyl)-piperidin-4-yl]-3-trifluoromethyl-benzoyl}-guanidine] — within 1.5-fold, 19 nM
- N=C(N)NC(=O)c1ccc(C2CCN(C(=O)C(N)Cc3ccncc3)CC2)c(C(F)(F)F)c1 (centres unmarked) [N-{4-[1-(2-Amino-3-pyridin-4-yl-propionyl)-piperidin-4-yl]-3-trifluoromethyl-benzoyl}-guanidine] — 2-fold higher, 32 nM
- N=C(N)NC(=O)c1ccc(C2CCN(C(=O)C(N)Cc3cccs3)CC2)c(C(F)(F)F)c1 (centres unmarked) [N-{4-[1-(2-Amino-3-thiophen-2-yl-propionyl)-piperidin-4-yl]-3-trifluoromethyl-benzoyl}-guanidine] — 2.2-fold higher, 35 nM
- CC(C)CC(N)C(=O)N1CCC(c2ccc(C(=O)NC(=N)N)cc2C(F)(F)F)CC1 (centres unmarked) [N-{4-[1-(2-Amino-4-methyl-pentanoyl)-piperidin-4-yl]-3-trifluoromethyl-benzoyl}-guanidine] — 2.5-fold higher, 40 nM
- CSCCC(N)C(=O)N1CCC(c2ccc(C(=O)NC(=N)N)cc2C(F)(F)F)CC1 (centres unmarked) [N-{4-[1-(2-Amino-4-methylsulfanyl-butyryl)-piperidin-4-yl]-3-trifluoromethyl-benzoyl}-guanidine] — within 1.5-fold, 13 nM
- N=C(N)NC(=O)c1ccc(C2CCN(C(=O)CN)CC2)c(C(F)(F)F)c1 [N-{4-[1-(2-Amino-acetyl)-piperidin-4-yl]-3-trifluoromethyl-benzoyl}-guanidine] — 4-fold lower, 4 nM
- CC(N)C(=O)N1CCC(c2ccc(C(=O)NC(=N)N)cc2C(F)(F)F)CC1 (centres unmarked) [N-{4-[1-(2-Amino-propionyl)-piperidin-4-yl]-3-trifluoromethyl-benzoyl}-guanidine] — 3.2-fold lower, 5 nM
- CS(=O)(=O)c1ccc(C(=O)N2CCC(c3ccc(C(=O)NC(=N)N)cc3C(F)(F)F)CC2)c(Cl)c1 [N-{4-[1-(2-Chloro-4-methanesulfonyl-benzoyl)-piperidin-4-yl]-3-trifluoromethyl-benzoyl}-guanidine] — 3.8-fold higher, 60 nM
- N=C(N)NC(=O)c1ccc(C2CCN(C(=O)c3ccccc3Cl)CC2)c(C(F)(F)F)c1 [N-{4-[1-(2-Chloro-benzoyl)-piperidin-4-yl]-3-trifluoromethyl-benzoyl}-guanidine] — 7.4-fold higher, 119 nM
- N#Cc1ccccc1C(=O)N1CC=C(c2ccc(C(=O)NC(=N)N)cc2C(F)(F)F)CC1 [N-{4-[1-(2-Cyano-benzoyl)-1,2,3,6-tetrahydro-pyridin-4-yl]-3-trifluoromethyl-benzoyl}-guanidine] — 5.8-fold higher, 93 nM
- N#Cc1ccccc1C(=O)N1CCC(c2ccc(C(=O)NC(=N)N)cc2C(F)(F)F)CC1 [N-{4-[1-(2-Cyano-benzoyl)-piperidin-4-yl]-3-trifluoromethyl-benzoyl}-guanidine] — 3.9-fold higher, 62 nM
- CN(C)CC(=O)N1CCC(c2ccc(C(=O)NC(=N)N)cc2C(F)(F)F)CC1 [N-{4-[1-(2-Dimethylamino-acetyl)-piperidin-4-yl]-3-trifluoromethyl-benzoyl}-guanidine] — 3.2-fold lower, 5 nM
- N=C(N)NC(=O)c1ccc(C2CCN(C(=O)c3ccc(C(F)(F)F)cc3F)CC2)c(C(F)(F)F)c1 [N-{4-[1-(2-Fluoro-4-trifluoromethyl-benzoyl)-piperidin-4-yl]-3-trifluoromethyl-benzoyl}-guanidine] — 19-fold higher, 305 nM
- N=C(N)NC(=O)c1ccc(C2CCN(C(=O)c3ccccc3F)CC2)c(C(F)(F)F)c1 [N-{4-[1-(2-Fluoro-benzoyl)-piperidin-4-yl]-3-trifluoromethyl-benzoyl}-guanidine] — 7.8-fold higher, 125 nM
- Cc1cc(C2CCN(C(=O)C(C)(C)O)CC2)c(C(F)(F)F)cc1C(=O)NC(=N)N [N-{4-[1-(2-Hydroxy-2-methyl-propionyl)-piperidin-4-yl]-2-methyl-5-trifluoromethyl-benzoyl}-guanidine] — the same, 16 nM
- N=C(N)NC(=O)c1ccc(C2CCN(C(=O)Cn3ccnc3)CC2)c(C(F)(F)F)c1 [N-{4-[1-(2-Imidazol-1-yl-acetyl)-piperidin-4-yl]-3-trifluoromethyl-benzoyl}-guanidine] — 2.7-fold lower, 6 nM
- C[S+]([O-])c1ccccc1C(=O)N1CCC(c2ccc(C(=O)NC(=N)N)cc2C(F)(F)F)CC1 (centres unmarked) [N-{4-[1-(2-Methanesulfinyl-benzoyl)-piperidin-4-yl]-3-trifluoromethyl-benzoyl}-guanidine] — 3.4-fold higher, 54 nM
- CS(=O)(=O)c1ccccc1C(=O)N1CC=C(c2ccc(C(=O)NC(=N)N)cc2C(F)(F)F)CC1 [N-{4-[1-(2-Methanesulfonyl-benzoyl)-1,2,3,6-tetrahydro-pyridin-4-yl]-3-trifluoromethyl-benzoyl}-guanidine] — 4.6-fold higher, 73 nM
- CS(=O)(=O)c1ccccc1C(=O)N1CCC(c2ccc(C(=O)NC(=N)N)cc2C(F)(F)F)CC1 [N-{4-[1-(2-Methanesulfonyl-benzoyl)-piperidin-4-yl]-3-trifluoromethyl-benzoyl}-guanidine] — 4.3-fold higher, 69 nM
- COCC(=O)N1CCC(c2ccc(C(=O)NC(=N)N)cc2C(F)(F)F)CC1 [N-{4-[1-(2-Methoxy-acetyl)-piperidin-4-yl]-3-trifluoromethyl-benzoyl}-guanidine] — within 1.5-fold, 22 nM
